Reference: article PMC11309911 (British journal of pharmacology, 2024)

Target: Cav2.1 calcium channel α1 subunit (P/Q-type hCav2.1) (Homo sapiens, UniProt O00555)
Assay: whole-cell patch clamp of ICa in transfected HEK293-F cells
Assay type: cell-based

Cav2.1 calcium channel α1 subunit (P/Q-type hCav2.1), sequence (O00555 whole entry): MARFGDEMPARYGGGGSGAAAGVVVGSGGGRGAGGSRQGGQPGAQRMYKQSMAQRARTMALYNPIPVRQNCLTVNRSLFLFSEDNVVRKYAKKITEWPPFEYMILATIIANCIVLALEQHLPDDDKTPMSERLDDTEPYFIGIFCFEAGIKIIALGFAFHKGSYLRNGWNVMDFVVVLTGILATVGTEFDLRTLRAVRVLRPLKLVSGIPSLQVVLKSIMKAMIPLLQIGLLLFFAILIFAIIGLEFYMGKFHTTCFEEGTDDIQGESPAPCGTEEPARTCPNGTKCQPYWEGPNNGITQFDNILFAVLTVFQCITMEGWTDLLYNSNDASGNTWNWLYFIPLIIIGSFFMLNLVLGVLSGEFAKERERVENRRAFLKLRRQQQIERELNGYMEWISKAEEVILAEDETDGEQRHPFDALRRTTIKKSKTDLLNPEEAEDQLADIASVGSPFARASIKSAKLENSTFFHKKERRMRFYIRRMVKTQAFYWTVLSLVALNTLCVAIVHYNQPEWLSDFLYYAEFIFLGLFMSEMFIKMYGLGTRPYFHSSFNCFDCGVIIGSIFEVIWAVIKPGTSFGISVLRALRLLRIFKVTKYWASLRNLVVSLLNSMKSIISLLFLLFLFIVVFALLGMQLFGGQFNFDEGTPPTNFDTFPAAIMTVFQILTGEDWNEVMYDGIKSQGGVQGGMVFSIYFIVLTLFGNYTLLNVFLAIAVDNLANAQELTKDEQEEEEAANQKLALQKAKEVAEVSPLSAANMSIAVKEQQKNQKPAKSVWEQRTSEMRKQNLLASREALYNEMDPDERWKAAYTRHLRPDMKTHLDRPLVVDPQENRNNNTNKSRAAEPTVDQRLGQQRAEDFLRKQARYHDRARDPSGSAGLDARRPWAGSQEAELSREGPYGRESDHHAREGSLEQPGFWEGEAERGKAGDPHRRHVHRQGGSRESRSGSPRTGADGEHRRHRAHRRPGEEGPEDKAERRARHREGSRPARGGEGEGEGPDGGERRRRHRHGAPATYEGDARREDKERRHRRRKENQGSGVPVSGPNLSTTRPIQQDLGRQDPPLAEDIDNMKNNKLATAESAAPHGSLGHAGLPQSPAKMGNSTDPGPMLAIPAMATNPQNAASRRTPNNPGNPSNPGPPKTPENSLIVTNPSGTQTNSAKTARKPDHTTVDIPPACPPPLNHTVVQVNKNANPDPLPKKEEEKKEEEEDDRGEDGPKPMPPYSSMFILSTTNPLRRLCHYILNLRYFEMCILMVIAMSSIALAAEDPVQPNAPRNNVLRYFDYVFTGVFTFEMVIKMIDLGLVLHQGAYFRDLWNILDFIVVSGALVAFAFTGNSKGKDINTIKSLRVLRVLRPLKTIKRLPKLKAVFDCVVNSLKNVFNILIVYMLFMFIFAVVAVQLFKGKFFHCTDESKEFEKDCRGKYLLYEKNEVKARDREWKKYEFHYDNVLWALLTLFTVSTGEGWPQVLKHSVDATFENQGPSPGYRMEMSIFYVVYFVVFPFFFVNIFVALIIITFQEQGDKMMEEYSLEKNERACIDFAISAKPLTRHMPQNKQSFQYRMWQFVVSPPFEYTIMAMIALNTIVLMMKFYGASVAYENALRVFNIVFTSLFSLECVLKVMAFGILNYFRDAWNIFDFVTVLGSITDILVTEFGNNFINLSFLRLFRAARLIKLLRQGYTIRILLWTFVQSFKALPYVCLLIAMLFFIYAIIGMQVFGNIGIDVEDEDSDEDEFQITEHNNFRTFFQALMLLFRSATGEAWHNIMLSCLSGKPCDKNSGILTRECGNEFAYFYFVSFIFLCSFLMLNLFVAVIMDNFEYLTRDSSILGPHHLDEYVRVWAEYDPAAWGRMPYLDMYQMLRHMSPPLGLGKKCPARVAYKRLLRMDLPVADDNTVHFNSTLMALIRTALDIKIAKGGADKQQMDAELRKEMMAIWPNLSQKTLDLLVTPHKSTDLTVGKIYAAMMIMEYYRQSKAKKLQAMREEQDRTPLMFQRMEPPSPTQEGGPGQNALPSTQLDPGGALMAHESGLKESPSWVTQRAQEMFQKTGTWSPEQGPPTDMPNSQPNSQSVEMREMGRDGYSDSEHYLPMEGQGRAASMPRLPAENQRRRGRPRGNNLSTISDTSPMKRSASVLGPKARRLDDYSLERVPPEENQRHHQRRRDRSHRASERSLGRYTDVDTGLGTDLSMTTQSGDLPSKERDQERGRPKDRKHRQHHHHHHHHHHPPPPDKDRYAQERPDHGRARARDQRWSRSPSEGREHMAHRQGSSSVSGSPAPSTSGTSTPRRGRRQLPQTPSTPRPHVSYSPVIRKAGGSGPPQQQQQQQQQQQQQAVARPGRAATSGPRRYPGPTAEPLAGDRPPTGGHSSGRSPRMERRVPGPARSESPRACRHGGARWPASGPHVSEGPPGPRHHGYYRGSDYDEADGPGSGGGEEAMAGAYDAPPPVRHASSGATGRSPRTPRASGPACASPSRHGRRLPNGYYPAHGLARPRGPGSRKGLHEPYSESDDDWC

N.N.N.N.N.N.N.N.[Cl][Ru+3].[NH]=[Ru][Cl] [Ru265]
IC50: ~2500 nM
